Results on 2 compounds are retold here after ChEMBL document CHEMBL3525932, “Comparison of metabolism of sesamin and episesamin by drug-metabolizing enzymes in human liver” (Drug Metab Dispos, 2012).

In data set [1] the target is T1, CYP2C9 (Homo sapiens, UniProt P11712). As to the kind of experiment: Ratio of Kinact to Ki(app) for mechanism-based inhibition of recombinant human CYP2C9 expressed in microsomes isolated from Saccharomyces cerevisiae AH22 cells assessed as diclofenac 4'-hydroxylation preincubated for 5 to 10 mins followed by substrate addition measured after 15 mins by HPLC analysis. The format is ADME, cell-based. The following applies: probe diclofenac (4'-hydroxylation).
T1 sequence (P11712 whole entry): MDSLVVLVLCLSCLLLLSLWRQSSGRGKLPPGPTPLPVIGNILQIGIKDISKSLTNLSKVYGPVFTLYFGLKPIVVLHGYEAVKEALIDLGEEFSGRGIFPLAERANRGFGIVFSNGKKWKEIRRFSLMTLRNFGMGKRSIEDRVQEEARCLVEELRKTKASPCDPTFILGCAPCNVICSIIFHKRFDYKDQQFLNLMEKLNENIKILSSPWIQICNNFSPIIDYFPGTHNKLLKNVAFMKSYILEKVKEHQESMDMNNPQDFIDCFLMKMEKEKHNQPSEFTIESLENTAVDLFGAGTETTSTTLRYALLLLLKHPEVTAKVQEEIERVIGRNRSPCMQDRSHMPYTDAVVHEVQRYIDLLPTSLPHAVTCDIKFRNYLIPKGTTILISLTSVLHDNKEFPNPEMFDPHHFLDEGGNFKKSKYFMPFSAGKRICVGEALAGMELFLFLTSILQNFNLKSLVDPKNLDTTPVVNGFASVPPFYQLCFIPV

The target of the next data set is Cytochrome P450 3A4 (Homo sapiens, UniProt P08684). As to the kind of experiment: Activity of recombinant human CYP3A4 expressed in Saccharomyces cerevisiae AH22 cells assessed as enzyme-mediated catecholization at 2 to 75 uM after 15 mins by HPLC analysis in presence of NADPH. The following applies: ah22, 0.25 h. The format is ADME, cell-based.
Sequence of Cytochrome P450 3A4 (P08684 whole entry): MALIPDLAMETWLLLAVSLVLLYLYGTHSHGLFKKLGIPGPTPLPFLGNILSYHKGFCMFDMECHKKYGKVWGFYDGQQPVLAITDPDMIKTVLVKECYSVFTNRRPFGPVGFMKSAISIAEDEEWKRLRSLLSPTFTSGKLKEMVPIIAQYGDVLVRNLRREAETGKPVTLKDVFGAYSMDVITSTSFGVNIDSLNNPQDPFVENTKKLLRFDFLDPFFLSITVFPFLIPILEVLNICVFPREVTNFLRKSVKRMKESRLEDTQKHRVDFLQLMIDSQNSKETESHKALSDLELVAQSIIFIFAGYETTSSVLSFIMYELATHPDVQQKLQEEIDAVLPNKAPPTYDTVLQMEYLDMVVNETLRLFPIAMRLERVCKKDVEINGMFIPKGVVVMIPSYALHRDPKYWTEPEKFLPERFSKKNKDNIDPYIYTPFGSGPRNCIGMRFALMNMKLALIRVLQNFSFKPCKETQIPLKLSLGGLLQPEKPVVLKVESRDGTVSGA
A further data set deals with Cytochrome P450 2D6 (Homo sapiens, UniProt P10635). Put plainly: Activity of recombinant human CYP2D6 expressed in Saccharomyces cerevisiae AH22 cells assessed as enzyme-mediated catecholization at 2 to 75 uM after 15 mins by HPLC analysis in presence of NADPH. The format is ADME, cell-based. The following applies: ah22, 0.25 h.
Sequence of Cytochrome P450 2D6 (P10635 whole entry): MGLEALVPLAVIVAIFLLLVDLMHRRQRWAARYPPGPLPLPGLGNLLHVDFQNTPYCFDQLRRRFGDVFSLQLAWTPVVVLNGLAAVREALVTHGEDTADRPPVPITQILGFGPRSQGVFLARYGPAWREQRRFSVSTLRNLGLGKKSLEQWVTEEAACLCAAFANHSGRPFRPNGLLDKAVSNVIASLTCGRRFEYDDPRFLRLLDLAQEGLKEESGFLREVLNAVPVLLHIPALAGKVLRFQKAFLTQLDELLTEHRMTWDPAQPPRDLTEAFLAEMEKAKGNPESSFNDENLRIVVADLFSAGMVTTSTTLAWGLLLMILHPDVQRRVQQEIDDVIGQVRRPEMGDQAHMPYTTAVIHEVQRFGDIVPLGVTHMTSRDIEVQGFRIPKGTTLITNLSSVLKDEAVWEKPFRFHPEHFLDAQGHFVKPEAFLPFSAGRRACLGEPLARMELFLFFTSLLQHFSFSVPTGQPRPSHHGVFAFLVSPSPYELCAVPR
For another data set, the target named is Cytochrome P450 2E1 (Homo sapiens, UniProt P05181). As to the kind of experiment: Activity of recombinant human CYP2E1 expressed in Saccharomyces cerevisiae AH22 cells assessed as enzyme-mediated catecholization at 2 to 75 uM after 15 mins by HPLC analysis in presence of NADPH. The format is ADME, cell-based. Particulars: ah22, 0.25 h.
Sequence of Cytochrome P450 2E1 (P05181 whole entry): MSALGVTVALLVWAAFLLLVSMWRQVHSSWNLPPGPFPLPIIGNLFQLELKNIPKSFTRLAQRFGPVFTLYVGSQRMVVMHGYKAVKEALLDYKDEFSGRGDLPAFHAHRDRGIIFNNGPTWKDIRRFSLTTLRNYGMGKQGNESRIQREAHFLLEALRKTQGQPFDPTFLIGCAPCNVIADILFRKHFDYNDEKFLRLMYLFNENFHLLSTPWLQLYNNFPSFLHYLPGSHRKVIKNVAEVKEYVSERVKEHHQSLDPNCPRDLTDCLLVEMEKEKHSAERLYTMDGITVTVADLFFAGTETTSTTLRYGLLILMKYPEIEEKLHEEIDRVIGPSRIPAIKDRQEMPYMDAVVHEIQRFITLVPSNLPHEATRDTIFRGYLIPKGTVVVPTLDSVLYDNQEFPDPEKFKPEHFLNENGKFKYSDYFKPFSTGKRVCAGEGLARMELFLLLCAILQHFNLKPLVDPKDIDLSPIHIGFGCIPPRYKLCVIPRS
Data set [2] addresses T2, Cytochrome P450 1A2 (Homo sapiens, UniProt P05177).
T2 sequence (P05177 whole entry): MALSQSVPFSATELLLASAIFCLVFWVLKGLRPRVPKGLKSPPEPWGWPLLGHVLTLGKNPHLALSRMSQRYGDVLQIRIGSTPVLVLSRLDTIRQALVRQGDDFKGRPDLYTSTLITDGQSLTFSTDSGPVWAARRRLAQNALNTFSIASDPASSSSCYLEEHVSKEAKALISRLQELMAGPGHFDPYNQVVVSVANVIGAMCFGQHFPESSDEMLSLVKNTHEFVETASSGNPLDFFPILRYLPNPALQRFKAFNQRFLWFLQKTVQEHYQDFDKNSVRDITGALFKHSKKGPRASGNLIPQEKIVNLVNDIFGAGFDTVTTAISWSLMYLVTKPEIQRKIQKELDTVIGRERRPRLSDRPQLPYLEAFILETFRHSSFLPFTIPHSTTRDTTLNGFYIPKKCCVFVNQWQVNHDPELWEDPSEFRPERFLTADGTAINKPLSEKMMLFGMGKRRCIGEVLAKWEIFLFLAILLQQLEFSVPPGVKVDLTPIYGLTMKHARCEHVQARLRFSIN
Put plainly: Activity of recombinant human CYP1A2 expressed in Saccharomyces cerevisiae AH22 cells assessed as enzyme-mediated (R)-episesamin monocatechol formation at 2 to 75 uM after 15 mins by HPLC analysis in presence of NADPH. The format is ADME, cell-based. Particulars: ah22, 0.25 h.

The target in data set [3] is T3, Cytochrome P450 2C9 (Homo sapiens, UniProt P11712). Put plainly: Activity of recombinant human CYP2C9 expressed in Saccharomyces cerevisiae AH22 cells assessed as enzyme-mediated (S)-episesamin monocatechol formation at 2 to 75 uM after 15 mins by HPLC analysis in presence of NADPH. The format is ADME, cell-based. Particulars: ah22, 0.25 h.
T3 sequence (P11712 whole entry): as the sequence (P11712 whole entry) above
In data set [4] the target is T3, Cytochrome P450 2C9. As to the kind of experiment: Activity of recombinant human CYP2C9 expressed in Saccharomyces cerevisiae AH22 cells assessed as enzyme-mediated (R)-episesamin monocatechol formation at 2 to 75 uM after 15 mins by HPLC analysis in presence of NADPH. The format is ADME, cell-based. The following applies: ah22, 0.25 h.
The target in data set [5] is T4, Cytochrome P450 2C19 (Homo sapiens, UniProt P33261). As to the kind of experiment: Activity of recombinant human CYP2C19 expressed in Saccharomyces cerevisiae AH22 cells assessed as enzyme-mediated (R)-episesamin monocatechol formation at 2 to 75 uM after 15 mins by HPLC analysis in presence of NADPH. The format is ADME, cell-based. The following applies: ah22, 0.25 h.
T4 sequence (P33261 whole entry): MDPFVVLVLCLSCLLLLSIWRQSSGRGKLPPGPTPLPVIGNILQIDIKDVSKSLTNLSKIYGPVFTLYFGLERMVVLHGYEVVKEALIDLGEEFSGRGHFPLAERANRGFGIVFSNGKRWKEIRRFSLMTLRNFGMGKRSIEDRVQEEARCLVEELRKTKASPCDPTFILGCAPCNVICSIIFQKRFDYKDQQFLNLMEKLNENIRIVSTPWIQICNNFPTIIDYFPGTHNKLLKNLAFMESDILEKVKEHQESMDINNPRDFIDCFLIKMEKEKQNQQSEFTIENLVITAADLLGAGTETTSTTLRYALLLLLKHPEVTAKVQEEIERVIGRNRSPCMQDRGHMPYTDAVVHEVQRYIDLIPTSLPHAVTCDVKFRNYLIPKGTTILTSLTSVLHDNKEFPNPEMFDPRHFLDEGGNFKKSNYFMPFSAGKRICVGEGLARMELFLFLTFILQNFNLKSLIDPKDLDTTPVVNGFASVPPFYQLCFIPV

Data set [6] addresses T4, Cytochrome P450 2C19. Put plainly: Activity of recombinant human CYP2C19 expressed in Saccharomyces cerevisiae AH22 cells assessed as enzyme-mediated (S)-episesamin monocatechol formation at 2 to 75 uM after 15 mins by HPLC analysis in presence of NADPH. The format is ADME, cell-based. The following applies: ah22, 0.25 h.
For data set [7], the target named is T2, Cytochrome P450 1A2. As to the kind of experiment: Activity of recombinant human CYP1A2 expressed in Saccharomyces cerevisiae AH22 cells assessed as enzyme-mediated episesamin dicatechol formation at 2 to 75 uM after 15 mins by HPLC analysis in presence of NADPH. Particulars: ah22, 0.25 h. The format is ADME, cell-based.
In data set [8] the target is T3, Cytochrome P450 2C9. As to the kind of experiment: Activity of recombinant human CYP2C9 expressed in Saccharomyces cerevisiae AH22 cells assessed as enzyme-mediated episesamin dicatechol formation at 2 to 75 uM after 15 mins by HPLC analysis in presence of NADPH. The format is ADME, cell-based. Particulars: ah22, 0.25 h.
The target of data set [9] is T4, Cytochrome P450 2C19. Put plainly: Activity of recombinant human CYP2C19 expressed in Saccharomyces cerevisiae AH22 cells assessed as enzyme-mediated episesamin dicatechol formation at 2 to 75 uM after 15 mins by HPLC analysis in presence of NADPH. The format is ADME, cell-based. Particulars: ah22, 0.25 h.
Data set [10] relates to Liver microsome. As to the kind of experiment: Drug metabolism in human liver microsomes assessed as (S)-episesamin monocatechol formation at 5 uM after 30 mins by HPLC analysis in presence of NADPH. The format is ADME. The following applies: 0.5 h.
Data set [11] concerns Liver microsome. Put plainly: Drug metabolism in human liver microsomes assessed as (R)-episesamin monocatechol formation at 5 uM after 30 mins by HPLC analysis in presence of NADPH. The format is ADME. Particulars: 0.5 h. Background: Liver microsomes are a subcellular fraction often used to study metabolism.
Data set [12] relates to Liver microsome. As to the kind of experiment: Drug metabolism in human liver microsomes assessed as episesamin dicatechol formation at 2 to 75 uM after 15 mins by HPLC analysis in presence of NADPH. The format is ADME. The following applies: 0.25 h.
Data set [13] deals with Liver microsome. Put plainly: Drug metabolism in human liver microsomes assessed as (S)-episesamin monocatechol formation at 2 to 75 uM after 15 mins by HPLC analysis in presence of NADPH. The format is ADME. The following applies: 0.25 h.
The test system of data set [14] is Liver microsome. Put plainly: Drug metabolism in human liver microsomes assessed as (R)-episesamin monocatechol formation at 2 to 75 uM after 15 mins by HPLC analysis in presence of NADPH. The format is ADME. Particulars: 0.25 h.
In data set [15] the test system is Liver microsome. As to the kind of experiment: Drug metabolism in heat-inactivated human liver microsomes assessed as episesamin dicatechol formation at 2 to 75 uM after 15 mins by HPLC analysis in presence of NADPH. The following applies: 0.25 h. The format is ADME.
Data set [16] relates to Liver microsome. As to the kind of experiment: Drug metabolism in human liver microsomes assessed as (S)-episesamin monocatechol formation at 5 uM after 15 mins by HPLC analysis in presence of NADPH and anti-CYP2C9 antibody. The format is ADME. The following applies: 0.25 h.
In data set [17] the test system is Liver microsome. Put plainly: Drug metabolism in human liver microsomes assessed as (S)-episesamin monocatechol formation at 5 uM after 15 mins by HPLC analysis in presence of NADPH and anti-CYP1A2 antibody. The format is ADME. Particulars: 0.25 h.
The test system of data set [18] is Liver microsome. Put plainly: Drug metabolism in human liver microsomes assessed as (R)-episesamin monocatechol formation at 5 uM after 15 mins by HPLC analysis in presence of NADPH and anti-CYP1A2 antibody. The format is ADME. The following applies: 0.25 h.
The subject of data set [19] is Liver microsome. As to the kind of experiment: Drug metabolism in human liver microsomes assessed as (R)-episesamin monocatechol formation at 5 uM after 15 mins by HPLC analysis in presence of NADPH and anti-CYP2C9 antibody. The format is ADME. The following applies: 0.25 h.
Data set [20] deals with Liver microsome. Put plainly: Drug metabolism in human liver microsomes assessed as episesamin monocatecholization at 5 uM after 15 mins by HPLC analysis in presence of NADPH and CYP2C9 inhibitor sulfaphenazole. The format is ADME. The following applies: 0.25 h.
In data set [21] the test system is Liver microsome. As to the kind of experiment: Drug metabolism in human liver microsomes assessed as episesamin monocatecholization at 5 uM after 15 mins by HPLC analysis in presence of NADPH and CYP2C19 inhibitor (+)-N-3-benzylnirvanol. The format is ADME. Particulars: 0.25 h.
Data set [22] concerns the target T1, CYP2C9. As to the kind of experiment: (§1) Mechanism-based inhibition of recombinant human CYP2C9 expressed in microsomes isolated from Saccharomyces cerevisiae AH22 cells assessed as diclofenac 4'-hydroxylation preincubated for 5 to 10 mins followed by substrate addition measured after 15 mins by HPLC analysis. The format is ADME, cell-based. Particulars: human, probe diclofenac (4'-hydroxylation).

For data set [23], the target named is T3, Cytochrome P450 2C9. The description is as §1. The format is ADME, cell-based.
Data set [24] has as its target T3, Cytochrome P450 2C9. As to the kind of experiment: Mechanism-based inhibition of recombinant human CYP2C9 expressed in microsomes isolated from Saccharomyces cerevisiae AH22 cells assessed as diclofenac 4'-hydroxylation up to 50 uM preincubated for 5 to 10 mins followed by substrate addition measured by HPLC analysis. The format is ADME, cell-based.
In data set [25] the test system is CYP450. Put plainly: Drug metabolism in human liver microsomes assessed as CYP450-mediated catecholization after 10 to 30 mins by HPLC analysis in presence of NADPH. The format is ADME.
Data set [26] in a line: Drug metabolism in human liver microsomes assessed as CYP450-mediated catecholization per mg of protein after 10 to 30 mins by HPLC analysis in presence of NADPH. The format is ADME.
Data set [27] has as its system CYP450. As to the kind of experiment: Drug metabolism in Sprague-Dawley rat liver microsomes assessed as CYP450-mediated catecholization after 10 to 30 mins by HPLC analysis in presence of NADPH. The format is ADME.
Data set [28] in a line: Drug metabolism in Sprague-Dawley rat liver microsomes assessed as CYP450-mediated catecholization per mg of protein after 10 to 30 mins by HPLC analysis in presence of NADPH. The format is ADME.
Data set [29] concerns the target T4, Cytochrome P450 2C19. Put plainly: Activity of recombinant human CYP2C19 expressed in Saccharomyces cerevisiae AH22 cells assessed as enzyme-mediated sesamin dicatechol/monocatechol formation at 2 to 20 uM after 15 mins by HPLC analysis in presence of NADPH. The format is ADME, cell-based. Particulars: ah22, 0.25 h.
Data set [30] deals with Liver microsome. Put plainly: Drug metabolism in human liver microsomes assessed as sesamin monocatechol formation after 30 mins by HPLC analysis in presence of NADPH. The format is ADME. Particulars: 0.5 h.

Turning to `c1cc2c(cc1[C@H]1OC[C@H]3[C@@H]1CO[C@H]3c1ccc3c(c1)OCO3)OCO2` [ASARININ], the kinact/KI (commonly the second-order rate constant of inactivation) at 0.25 h on CYP2C9 [1] is 417 M⁻¹ s⁻¹. Besides, the Drug metabolism result was “metabolite_not_detected” at Cytochrome P450 3A4; “metabolite_not_detected” on Cytochrome P450 2D6; “metabolite_not_detected” at Cytochrome P450 2E1; “metabolite_detected” on Cytochrome P450 1A2 [2]; “metabolite_detected” at Cytochrome P450 2C9 [3]; “metabolite_detected” on Cytochrome P450 2C9 [4]. Besides, the Drug metabolism result on Cytochrome P450 2C19 [5] was “metabolite_detected”; on Cytochrome P450 2C19 [6] it was “metabolite_detected”; at Cytochrome P450 1A2 [7], “metabolite_not_detected”; on Cytochrome P450 2C9 [8] it was “metabolite_not_detected”; on Cytochrome P450 2C19 [9], “metabolite_detected”; with Liver microsome [10], “metabolite_detected”. Moreover, the Drug metabolism result is “metabolite_detected” in the data set on Liver microsome [11]; “metabolite_detected” in the data set with Liver microsome [12]; “metabolite_detected” in the data set on Liver microsome [13]; “metabolite_detected” with Liver microsome [14]; “metabolite_not_detected” with Liver microsome [15]; “metabolite_not_detected” in the data set on Liver microsome [16]. Besides, the Drug metabolism result is “metabolite_detected” in the data set with Liver microsome [17]; “metabolite_not_detected” in the data set with Liver microsome [18]; “metabolite_not_detected” with Liver microsome [19]; “metabolite_not_detected” with Liver microsome [20]; “metabolite_detected” in the data set with Liver microsome [21]. In addition, at CYP2C9 [22], the kinact (usually the maximal first-order rate at which the target is inactivated) at 0.25 h was 0.00283 s⁻¹. The “inhibition (INH)” value at Cytochrome P450 2C9 [23] (human, microsomes, 0.25 h) is given as “Dose-dependent effect”; at Cytochrome P450 2C9 [24], “Dose-dependent effect”. Moreover, the Ki on Cytochrome P450 2C9 [23] (read-out: Ki(app)) turned out to be 6.8 µM. The Km (in general, the concentration of substrate that gives half-maximal velocity) in the data set on CYP450 [25] was 13 µM; in the data set with CYP450 [27], 16 µM. The values for the Vmax in data set [26] and in data set [28] were 0.4 nmol/min/mg and 6.3 nmol/min/mg, respectively.

Consider `c1cc2c(cc1[C@H]1OC[C@H]3[C@@H]1CO[C@@H]3c1ccc3c(c1)OCO3)OCO2` [SESAMIN], for which the inactivation efficiency (kinact/KI) at 0.25 h on CYP2C9 [1] was 2330 M⁻¹ s⁻¹. Moreover, the Drug metabolism result at Cytochrome P450 2C19 [29] and in the data set on Liver microsome [30] was “metabolite_detected” throughout. In addition, the results for the Km in the data set with CYP450 [25] and in the data set with CYP450 [27] were 7.7 µM and 7.1 µM, respectively. In addition, the Vmax (as a rule, the top rate of the reaction or transport when substrate is in excess) in data set [26] stood at 0.81 nmol/min/mg; in [28], 4.8 nmol/min/mg.
